Assay results reported in the supplement of paper PMC10949913.

How the values were obtained:
NCI-H295R [1] = test: ExcessHSA synergy score with TAK-243; higher = less synergy (negative = synergistic); settings: combined with: TAK-243 (MLN-7243) matrix, 9-point 1:2 dilution
Procedure: (§1)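 Each drug was tested at 9 points with 1:2 dilution; viability was read by CellTiter-Glo as in the single-agent screen. Synergy is scored as ExcessHSA (sum of excess over highest single agent; negative = synergy) and the Beta interaction parameter (<1 synergy).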

CU-ACC1 [2] = test: as above; settings: combined with: TAK-243 (MLN-7243) matrix, 9-point 1:2 dilution
Procedure: as §1

CU-ACC2 [3] = test: area under concentration-response curve (viability) (AUC (a.u.)); higher = less active; settings: 48 h
Outline: (§2)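 Library compounds were tested at 11 concentrations against three adrenocortical carcinoma cell lines in 1,536-well plates. CellTiter-Glo luminescence was read after 48 h and normalised per plate to vehicle and empty-well controls. Only inhibitory or non-responding curve classes from fitted concentration-response curves contributed AC50 and area under the curve.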

CU-ACC1 [4] = test: as above; settings: 48 h
Outline: as §2

NCI-H295R [5] = test: as above; settings: 48 h
Outline: as §2

CU-ACC2 [6] = test: AC50 viability; higher = less potent; settings: 48 h
Outline: as §2

CU-ACC1 [7] = test: AC50 viability; higher = less potent; settings: 48 h
Outline: as §2

NCI-H295R [8] = test: AC50 viability; higher = less potent; settings: 48 h
Outline: as §2

Compound | ExcessHSA synergy score with TAK-243 (NCI-H295R [1]) | ExcessHSA synergy score with TAK-243 (CU-ACC1 [2]) | area under concentration-response curve (CU-ACC2 [3]) | area under concentration-response curve (CU-ACC1 [4]) | area under concentration-response curve (NCI-H295R [5]) | AC50 viability (CU-ACC2 [6]) [µM] | AC50 viability (CU-ACC1 [7]) [µM] | AC50 viability (NCI-H295R [8]) [µM]
Nc1nc2[nH]cc(CCc3ccc(C(=O)N[C@@H](CCC(=O)O)C(=O)O)cc3)c2c(=O)[nH]1 [Pemetrexed] | 397 | – | – | – | – | – | – | –
Nc1ncn([C@@H]2O[C@H](CO)[C@@H](O)[C@H]2O)c(=O)n1 [5-Azacitidine] | – | 346 | – | – | – | – | – | –
CNCCCC12CCC(c3ccccc31)c1ccccc12 | – | – | 564 | 488 | 464 | 23.5 | 23.5 | 16.6
CC[C@@]1(O)C[C@H](O[C@H]2C[C@H](N(C)C)[C@H](O[C@H]3C[C@H](O)[C@H](O[C@H]4CCC(=O)[C@H](C)O4)[C@H](C)O3)[C@H](C)O2)c2c(cc3c(c2O)C(=O)c2c(O)cccc2C3=O)[C@H]1C(=O)OC | – | – | 533 | 453 | 523 | 16.6 | 23.5 | 16.6
CN(C)CCOc1ccc(-c2nc(-c3ccncc3)c(-c3ccc4c(c3)CC/C4=N\O)[nH]2)cc1 | – | – | 521 | 398 | 440 | 20.9 | 16.6 | 14.8
COc1ccc(C(=O)c2c(C)n(CCN3CCOCC3)c3ccccc23)cc1 | – | – | 431 | 389 | 402 | 5.25 | 10.5 | 5.25
C1CCC(C(CC2CCCCN2)C2CCCCC2)CC1 (configuration not stated) | – | – | 460 | 398 | 414 | 11.8 | 8.33 | 9.34
COC1=CC=C(C(=C1)OC(C)C)C/2=N/[C@@H]([C@@H](N2C(=O)N3CCNC(=O)C3)C4=CC=C(Cl)C=C4)C5=CC=C(Cl)C=C5 | – | – | 291 | 290 | 288 | 14.8 | 11.8 | 10.5
CNC(=O)c1ccccc1Sc1ccc2c(/C=C/c3ccccn3)n[nH]c2c1 | – | – | 493 | 368 | 461 | 16.6 | 37.2 | 3.72
COc1cc2c(Oc3ccc4[nH]c(C)cc4c3F)ncnc2cc1OCCCN1CCCC1 | – | – | 566 | 491 | 461 | 20.9 | 20.9 | 20.9
CN[C@H]1CC[C@@H](c2ccc(Cl)c(Cl)c2)c2ccccc21 | – | – | 438 | 386 | 394 | 16.6 | 10.5 | 11.8
O=C(NC1CCNCC1)c1n[nH]cc1NC(=O)c1c(Cl)cccc1Cl | – | – | 512 | 464 | 542 | 3.32 | 9.34 | 16.6
